Laboratory results as given in ChEMBL document CHEMBL4732190, “Identification of Potent and Long-Acting Single-Chain Peptide Mimetics of Human Relaxin-2 for Cardiovascular Diseases” (J Med Chem, 2021).
*1 amine or outer side, *2 acyl side, *3 side chain or, on linkers, in order; H or OH if unused. Where a SMILES comes first, the peptide text is derived from it. [ ]: non-standard residue; d: D form. β2hAla(2S) = C[C@@H](CN[*:1])C(=O)[*:2]; X4 = CCCC[C@H](O[*:1])C(=O)[*:2]; hLys = NCCCCC[C@H](N)C(=O)O

Assays:
Relaxin receptor 1 = target: T1, Relaxin receptor 1 (Homo sapiens, UniProt Q9HBX9); assay: Agonist activity at RXFP1 endogenously expressed in human OVCAR-5 cells assessed as increase in IBMX-induced cAMP accumulation pretreated with IBMX for 40 mins followed by compound addition and measured after 30 mins by HTRF assay; assay type: functional, cell-based
T1 sequence (Q9HBX9 whole entry): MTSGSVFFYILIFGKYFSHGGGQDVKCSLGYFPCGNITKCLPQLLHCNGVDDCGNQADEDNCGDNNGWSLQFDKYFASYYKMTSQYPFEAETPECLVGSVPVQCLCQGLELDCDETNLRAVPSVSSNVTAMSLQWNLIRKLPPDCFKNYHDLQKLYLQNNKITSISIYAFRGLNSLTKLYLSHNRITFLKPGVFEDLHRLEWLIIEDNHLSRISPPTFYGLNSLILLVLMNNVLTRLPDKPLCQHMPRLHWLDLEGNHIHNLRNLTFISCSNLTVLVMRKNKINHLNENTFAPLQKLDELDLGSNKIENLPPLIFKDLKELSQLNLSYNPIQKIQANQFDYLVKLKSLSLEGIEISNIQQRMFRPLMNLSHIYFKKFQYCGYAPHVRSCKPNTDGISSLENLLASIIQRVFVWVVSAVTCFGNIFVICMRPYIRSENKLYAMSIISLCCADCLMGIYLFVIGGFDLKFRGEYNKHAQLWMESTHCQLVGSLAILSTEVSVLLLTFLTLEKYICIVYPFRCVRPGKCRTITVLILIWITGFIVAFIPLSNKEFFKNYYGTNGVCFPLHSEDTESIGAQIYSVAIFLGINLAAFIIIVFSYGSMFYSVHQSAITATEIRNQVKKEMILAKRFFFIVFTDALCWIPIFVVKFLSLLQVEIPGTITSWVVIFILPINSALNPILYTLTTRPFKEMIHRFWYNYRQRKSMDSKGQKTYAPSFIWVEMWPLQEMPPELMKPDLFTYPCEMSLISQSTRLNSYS

[1] = Stability in human plasma assessed as parent compound remaining level at 5 uM remaining after 4 hrs; assay type: ADME, cell-free; details: read-out: Stabilty
[2] = Stability in rat plasma assessed as parent compound remaining level at 5 uM remaining after 4 hrs; assay type: ADME, cell-free; details: read-out: Stabilty
[3] = target: T2, Relaxin receptor 1 (Homo sapiens) (UniProt Q9HBX9); assay: Agonist activity at RXFP1 endogenously expressed in human OVCAR-5 cells assessed as increase in IBMX-induced cAMP accumulation pretreated with IBMX for 40 mins followed by compound addition and measured after 30 mins by HTRF assay relative to relaxin; assay type: functional, cell-based; details: filed as agonist
T2 sequence (whole entry): T1 sequence (Q9HBX9 whole entry)

| EC50 (Relaxin receptor 1) | remaining at 4 h, 5 µM [1] | remaining at 4 h, 5 µM [2] | Emax [3] | Structure (SMILES) |
| --- | --- | --- | --- | --- |
| 14 nM | 79% | 24% | 99% | CC[C@H](C)[C@H](NC(=O)[C@H](CCC(N)=O)NC(=O)[C@H](C)NC(=O)[C@H](CCCNC(=N)N)NC(=O)[C@@H](NC(=O)[C@H](CCCCN)NC(=O)[C@H](CCC(=O)O)NC(=O)[C@H](CCCNC(=N)N)NC(=O)CNC(=O)[C@H](CCC(=O)O)NC(=O)[C@H](CC(C)C)NC(C)=O)C(C)C)C(=O)NC[C@H](C)C(=O)NC[C@H](C)C(=O)N[C@@H](CCC(=O)O)C(=O)NCC(=O)N[C@@H](CCSC)C(=O)N[C@@H](CO)C(=O)N[C@@H](CCCCN)C(=O)N[C@@H](Cc1c[nH]c2ccccc12)C(=O)N[C@@H](CO)C(=O)N[C@@H](CCCCN)C(=O)N[C@@H](CCCNC(=N)N)C(=O)N[C@@H](CCCCN)C(=O)N[C@@H](CCCCN)C(N)=O (HELM PEPTIDE1{[ac].L.E.G.R.E.K.V.R.A.Q.I.[C[C@@H](CN[*:1])C(=O)[*:2]].[C[C@@H](CN[*:1])C(=O)[*:2]].E.G.M.S.K.W.S.K.R.K.K.[am]}$$$$V2.0) |
| 146 nM | – | – | 102% | CC[C@H](C)[C@H](NC(=O)[C@H](CCC(N)=O)NC(=O)[C@H](C)NC(=O)[C@H](CCCNC(=N)N)NC(=O)[C@@H](NC(=O)[C@@H](NC(=O)[C@H](CCC(=O)O)NC(=O)[C@H](CCCNC(=N)N)NC(=O)CNC(=O)[C@H](CCC(=O)O)NC(=O)[C@H](CC(C)C)NC(=O)[C@H](CCCCN)NC(=O)[C@@H](NC(=O)[C@@H](NC(C)=O)C(C)C)[C@@H](C)CC)[C@@H](C)CC)C(C)C)C(=O)NC[C@H](C)C(=O)N[C@H](C(=O)N[C@@H](CO)C(=O)NCC(=O)N[C@@H](CCSC)C(=O)N[C@@H](CO)C(=O)N[C@H](C(=O)N[C@@H](Cc1c[nH]c2ccccc12)C(=O)N[C@@H](CO)C(=O)N[C@@H](CCCCN)C(=O)N[C@@H](CCCNC(=N)N)C(=O)N[C@@H](CCCCN)C(=O)N[C@@H](CCCCN)C(N)=O)[C@@H](C)O)[C@@H](C)CC (HELM PEPTIDE1{[ac].V.I.K.L.E.G.R.E.I.V.R.A.Q.I.[C[C@@H](CN[*:1])C(=O)[*:2]].I.S.G.M.S.T.W.S.K.R.K.K.[am]}$$$$V2.0) |
| 498 nM | – | – | 86% | CC[C@H](C)[C@H](NC(=O)[C@H](CCC(N)=O)NC(=O)[C@H](C)NC(=O)[C@H](CCCNC(=N)N)NC(=O)[C@@H](NC(=O)[C@H](CC(C)C)NC(=O)[C@H](CCC(=O)O)NC(=O)[C@H](CCCNC(=N)N)NC(=O)CNC(=O)[C@H](CO)NC(=O)[C@H](CC(C)C)NC(=O)[C@H](CCCCN)NC(=O)[C@@H](NC(=O)[C@@H](NC(=O)[C@H](CCC(=O)O)NC(=O)[C@H](CCC(=O)O)NC(C)=O)C(C)C)[C@@H](C)CC)C(C)C)C(=O)NC[C@H](C)C(=O)N[C@H](C(=O)N[C@@H](CO)C(=O)NCC(=O)N[C@@H](CCSC)C(=O)N[C@@H](CO)C(=O)N[C@H](C(=O)N[C@@H](Cc1c[nH]c2ccccc12)C(=O)N[C@@H](CO)C(=O)N[C@@H](CCCCN)C(=O)N[C@@H](CCCNC(=N)N)C(=O)N[C@@H](CO)C(=O)N[C@@H](CC(C)C)C(N)=O)[C@@H](C)O)[C@@H](C)CC (HELM PEPTIDE1{[ac].E.E.V.I.K.L.S.G.R.E.L.V.R.A.Q.I.[C[C@@H](CN[*:1])C(=O)[*:2]].I.S.G.M.S.T.W.S.K.R.S.L.[am]}$$$$V2.0) |
| 32 nM | – | – | 96% | CCCC[C@H](OC(=O)CNC(=O)[C@H](CCC(=O)O)NC(=O)[C@@H](C)CNC(=O)[C@@H](NC(=O)[C@H](CCC(N)=O)NC(=O)[C@H](C)NC(=O)[C@H](CCCNC(=N)N)NC(=O)[C@@H](NC(=O)[C@H](CCCCN)NC(=O)[C@H](CCC(=O)O)NC(=O)[C@H](CCCNC(=N)N)NC(=O)CNC(=O)[C@H](CCC(=O)O)NC(=O)[C@H](CC(C)C)NC(C)=O)C(C)C)[C@@H](C)CC)C(=O)N[C@@H](CO)C(=O)N[C@H](C(=O)N[C@@H](Cc1c[nH]c2ccccc12)C(=O)N[C@@H](CO)C(=O)NC[C@H](C)C(=O)N[C@@H](CCCNC(=N)N)C(=O)N[C@@H](CCCCN)C(=O)N[C@@H](CCCCN)C(=O)N[C@@H](CCCCCNC(C)=O)C(N)=O)[C@@H](C)O (Ac-LEGREKVRAQI[β2hAla(2S)]EG[X4]STWS[β2hAla(2S)]RKK[hLys](Ac)-NH2) |
